The values that follow are results of earlier work, collected in US10881104B2, “Arthropod control composition, formulation, and method” (priority 2013, dated 2021).

The series relates to D. variabilis. Particulars: unformulated; 2 h after application.

With `CCCCCCCCCC(C)=O` [Formulation 2-undecanone, 2-undecanone], the repellency is listed as 74%.
